Data: patent publication US20250025438A1, “Derivative of aspartic acid and use thereof in treatment of metabolic diseases such as hepatic fibrosis and non-alcoholic hepatitis” (SHENZHEN JINGTAI TECHNOLOGY CO., LTD., priority 2021, published 2025)
Where a name gives a salt, the structure may show the parent alone.

Experiments:
Type in all cases: cell-based
collagen 3 = test: In-vitro liver fibrosis model in activated LX2 cells (TGFβ1), qPCR: collagen 3; settings: LX-2 cells activated with TGFβ1 (5 ng/mL), 25 μM compound, 24 hours, real-time PCR
Procedure: (§1) This experiment was performed strictly in accordance with the instructions of the Total RNA Kit. The steps were as follows (note: this experiment was performed on ice throughout the entire process, and special RNase-free tips were used throughout the entire process): • 1) The 12-well cell culture plate was taken out from the incubator, the cell culture medium was discarded, the cells were washed twice with 1 mL of 1×PBS, and a negative pressure suction device was used to fully remove PBS; • 2) 350 μL of TRK Lysis Buffer mixture/well was prepared as needed (mixture preparation method: 1 mL of TRKLysis Buffer+20 μL of β-mercaptoethanol), vortexed and mixed well. 350 μL was added to each well of the 12-well cell culture plate, and allowed to stand at room temperature for 5 minutes to fully lyse the cells; • 3) 70% ethanol/well was prepared as needed, vortexed and mixed well. 350 μL was added to each well of the 12-well cell culture plate, mixed well by shaking, and transferred to the spin column (spin column+collection tube were assembled); • 4) Centrifugation was performed at 4° C., 12000 g for 60 sec. […]

collagen 1 = test: In-vitro liver fibrosis model in activated LX2 cells (TGFβ1), qPCR: collagen 1; settings: LX-2 cells activated with TGFβ1 (5 ng/mL), 25 μM compound, 24 hours, real-time PCR
Procedure: as §1

COL1A2 = test: In vitro efficacy in semi-activated LX2 cells, qPCR: COL1A2; settings: Homo sapiens, LX-2, 48 hours, Q-PCR, read-out: COL1A2 mRNA inhibition rate
α-SMA [1] = test: In-vitro liver fibrosis model in activated LX2 cells (TGFβ1), qPCR: α-SMA; settings: LX-2 cells activated with TGFβ1 (5 ng/mL), 25 μM compound, 24 hours, real-time PCR
Procedure: as §1

collagen I = test: Activated LX2 cells (TGFβ1), Western blot: Collagen I; settings: LX2 cells stimulated with TGFβ1 (5 ng/mL), 24 hours, FIG. 4
α-SMA [2] = test: Activated LX2 cells (TGFβ1), Western blot: α-SMA; settings: LX2 cells stimulated with TGFβ1 (5 ng/mL), 24 hours, FIG. 4

Structure (SMILES) | collagen 3 gene expression inhibition rate (collagen 3) | collagen 1 gene expression inhibition rate (collagen 1) | inhibition at 50 µM (COL1A2) [%] | α-SMA gene expression inhibition rate (α-SMA [1]) | expression of Collagen I in the cells (collagen I) | expression of α-SMA in the cells (α-SMA [2])
COC(=O)[C@@H](N)CC(=O)O [Compound 4] | A (A represented that the inhibition rate was 25% or above) | A (A represented that the inhibition rate was 25% or above) | 1 to 10 | B (B represented that the inhibition rate was 10% to 25%) | – | –
COC(=O)C[C@H](N)C(=O)OCOC(=O)[C@@H](N)CC(=O)OC [Compound 54, 4-dimethyl O′1,01-methylene (2S,2'S)-bis (2-aminosuccinate) hydrochloride] | – | – | – | – | significantly decreased | significantly decreased
COC(=O)C[C@H](N)C(=O)O [Compound 6] | A (A represented that the inhibition rate was 25% or above) | B (B represented that the inhibition rate was 10% to 25%) | 1 to 10 | A (A represented that the inhibition rate was 25% or above) | – | –
